Laboratory results reported in ChEMBL document CHEMBL4819041 (J Med Chem, 2021).

Legend:
Assay type in all cases: organism-based
Details in all cases: in vivo
[1] = Toxicity in Balb/c nude mouse xenografted with human MDA-MB-231 cells assessed as normal feeding at 20 mg/kg, ip QD
[2] = Toxicity in Balb/c nude mouse xenografted with human MDA-MB-231 cells assessed as change in body weight at 20 mg/kg, ip QD
[3] = Toxicity in Balb/c nude mouse xenografted with human MDA-MB-231 cells assessed as dose toleration at 20 mg/kg, ip QD
[4] = Toxicity in Balb/c nude mouse xenografted with human MDA-MB-231 cells assessed as adverse effect at 20 mg/kg, ip QD
[5] = Toxicity in Balb/c nude mouse xenografted with human MDA-MB-231 cells assessed as normal inquisitiveness at 20 mg/kg, ip QD

Measured: Activity

CNCc1ccccc1CN(CC(=O)Nc1ccc2c(c1)CC1(C2)C(=O)Nc2ncccc21)C(=O)C(C)(C)C (stereo not given)
Non-Toxic: all assays above
